Read-outs that look alike come from different tables or passages of the source.
Key:
human P2X3 receptor = human P2X3 receptor (Homo sapiens (Human), UniProt P56373); test: Intracellular calcium measurement (FLIPR, Fluo-4) of antagonist activity at human P2X3 receptors; format: cell-based; conditions: read-out: hP2X3 IC50
In short: (§1)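 Cells expressing human P2X3 or P2X2/3, loaded with Fluo-4, preincubated 30 min at 37° C. with compound (1% DMSO final), then challenged with α,β-Me-ATP at its EC80. Peak FLIPR fluorescence over 90 sec gave % response; IC50, maximal inhibition and Hill slope from triplicates.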

human P2X2/3 receptor = human P2X2/3 receptor (Homo sapiens (Human), UniProt P56373+Q9UBL9); test: Intracellular calcium measurement (FLIPR, Fluo-4) of antagonist activity at human P2X2/3 receptors; format: cell-based
human P2X2/3 receptor, sequence (P56373 whole entry): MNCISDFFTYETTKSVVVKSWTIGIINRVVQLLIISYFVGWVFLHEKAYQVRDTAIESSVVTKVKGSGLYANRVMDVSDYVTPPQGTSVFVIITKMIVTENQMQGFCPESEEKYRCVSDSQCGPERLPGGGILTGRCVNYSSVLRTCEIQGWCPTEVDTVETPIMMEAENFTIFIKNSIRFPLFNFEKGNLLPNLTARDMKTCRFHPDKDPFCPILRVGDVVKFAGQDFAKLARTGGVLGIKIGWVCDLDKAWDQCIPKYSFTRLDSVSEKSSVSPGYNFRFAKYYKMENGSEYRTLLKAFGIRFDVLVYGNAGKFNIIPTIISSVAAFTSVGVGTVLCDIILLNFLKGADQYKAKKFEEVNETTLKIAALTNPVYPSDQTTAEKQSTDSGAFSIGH
human P2X2/3 receptor, sequence (Q9UBL9 whole entry): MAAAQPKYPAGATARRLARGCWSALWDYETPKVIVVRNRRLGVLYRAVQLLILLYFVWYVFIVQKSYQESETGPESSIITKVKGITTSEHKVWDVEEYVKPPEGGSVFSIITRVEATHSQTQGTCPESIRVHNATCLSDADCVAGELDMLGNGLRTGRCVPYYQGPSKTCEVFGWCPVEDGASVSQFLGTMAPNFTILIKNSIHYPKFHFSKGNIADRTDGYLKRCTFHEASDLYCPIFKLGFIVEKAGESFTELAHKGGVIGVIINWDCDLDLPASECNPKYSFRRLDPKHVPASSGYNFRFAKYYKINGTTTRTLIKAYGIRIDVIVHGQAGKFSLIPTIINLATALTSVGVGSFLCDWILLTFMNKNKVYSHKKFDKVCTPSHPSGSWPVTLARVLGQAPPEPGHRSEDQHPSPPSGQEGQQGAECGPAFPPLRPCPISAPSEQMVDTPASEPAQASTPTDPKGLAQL
In short: as §1

[1] = human P2X3, FLIPR calcium assay, agonist α,β-Me-ATP
[2] = human P2X2/3, FLIPR calcium assay, agonist α,β-Me-ATP, read-out: hP2X2/3 IC50

human P2X3 receptor, sequence (P56373 whole entry): as the sequence (P56373 whole entry) above

Row | SMILES | IC50 (human P2X3 receptor; [1]) [nM] | IC50 (human P2X2/3 receptor; [2]) [nM] | IC50 (human P2X3 receptor) [nM] | IC50 (human P2X2/3 receptor; hP2X2/3 IC50 (nM)) [nM]
1 | Cc1cnc(-c2cc(O[C@@H]3CCOC3)cc(C(=O)N[C@H](C)c3cnc(C(F)(F)F)cn3)c2)s1 [Example 147, 3-(5-methyl-1,3-thiazol-2-yl)-5-[(3R)-tetrahydrofuran-3-yloxy]-N-{(1R)-1-[5-(trifluoromethyl)pyrazin-2-yl]ethyl}benzamide] | 6 | 132 | – | –
2 | Cc1cnc(-c2cc(OC3COC3)cc(C(=O)N[C@H](C)c3ccc(C(F)(F)F)nc3)c2)s1 [Example 148, 3-(5-methyl-1,3-thiazol-2-yl)-5-(oxetan-3-yloxy)-N-{(1R)-1-[6-(trifluoromethyl)pyridin-3-yl]ethyl}benzamide] | 33 | 794 | – | –
3 | Cc1cnc(-c2cc(OC34CCN(CC3)CC4)cc(C(=O)N[C@H](C)c3cnc(C(F)(F)F)nc3)c2)s1 [Example 149] | 21 | 936 | – | –
4 | CC(=O)N1CCC(Oc2cc(C(=O)N[C@H](C)c3cnc(C(F)(F)F)nc3)cc(-c3ncc(C)s3)c2)CC1 [Example 150, 3-[(1-acetylpiperidin-4-yl)oxy]-5-(5-methyl-1,3-thiazol-2-yl)-N-{(1R)-1-[2-(trifluoromethyl)pyrimidin-5-yl]ethyl}benzamide] | 12 | 83 | – | –
5 | Cc1cnc(-c2cc(O[C@H]3CCOC3)cc(C(=O)N[C@H](C)c3cnc(C(F)F)nc3)c2)s1 [Example 151, N-{(1R)-1-[2-(difluoromethyl)pyrimidin-5-yl]ethyl}-3-(5-methyl-1,3-thiazol-2-yl)-5-[(3S)-tetrahydrofuran-3-yloxy]benzamide] | 31 | 333 | – | –
6 | Cc1cnc(-c2cc(OC3COC3)cc(C(=O)N[C@H](C)c3cnc(C(F)F)nc3)c2)s1 [Example 152, N-{(1R)-1-[2-(difluoromethyl)pyrimidin-5-yl]ethyl}-3-(5-methyl-1,3-thiazol-2-yl)-5-(oxetan-3-yloxy)benzamide] | 45 | 523 | – | –
7 | Cc1cnc(-c2cc(O[C@@H]3CCOC3)cc(C(=O)N[C@H](C)c3cnc(C(F)F)nc3)c2)s1 [Example 153, N-{(1R)-1-[2-(difluoromethyl)pyrimidin-5-yl]ethyl}-3-(5-methyl-1,3-thiazol-2-yl)-5-[(3R)-tetrahydrofuran-3-yloxy]benzamide] | 27 | 304 | – | –
8 | Cc1cnc(-c2cc(O[C@@H]3CCOC3)cc(C(=O)N[C@H](C)c3ccc(C(F)(F)F)nc3)c2)s1 [Example 157, 3-(5-methyl-1,3-thiazol-2-yl)-5-[(3R)-tetrahydrofuran-3-yloxy]-N-{(1R)-1-[6-(trifluoromethyl)pyridin-3-yl]ethyl}benzamide] | 17 | 534 | – | –
9 | Cc1cnc(-c2cc(OCCn3cncn3)cc(C(=O)N[C@H](C)c3ccc(C(F)(F)F)nc3)c2)s1 [Example 160, 3-(5-methyl-1,3-thiazol-2-yl)-5-[2-(1H-1,2,4-triazol-1-yl)ethoxy]-N-{(1R)-1-[6-(trifluoromethyl)pyridin-3-yl]ethyl}benzamide] | 28 | 1010 | – | –
10 | Cc1cnc(-c2cc(OC3COC3)cc(C(=O)N[C@H](C)c3ccc(C(F)(F)F)nn3)c2)s1 [Example 161, 3-(5-methyl-1,3-thiazol-2-yl)-5-(oxetan-3-yloxy)-N-{(1R)-1-[6-(trifluoromethyl)pyridazin-3-yl]ethyl}benzamide] | 32 | 632 | – | –
11 | Cc1cnc(-c2cc(OC3COC3)cc(C(=O)N[C@H](C)c3ccc(C(F)F)nc3)c2)s1 [Example 164] | 60 | 1110 | – | –
12 | Cc1cnc(-c2cc(O[C@H]3C[C@H](N(C)C)C3)cc(C(=O)N[C@H](C)c3cnc(C(F)(F)F)nc3)c2)s1 [Example 165, 3-{[trans-3-(dimethylamino)cyclobutyl]oxy}-5-(5-methyl-1,3-thiazol-2-yl)-N-{(1R)-1-[2-(trifluoromethyl)pyrimidin-5-yl]ethyl}benzamide] | 81 | 1920 | – | –
13 | Cc1cnc(-c2cc(O[C@@H]3CCOC3)cc(C(=O)NCc3cnc(C(F)(F)F)nc3)c2)s1 [Example 166, 3-(5-methyl-1,3-thiazol-2-yl)-5-[(3R)-tetrahydrofuran-3-yloxy]-N-{[2-(trifluoromethyl)pyrimidin-5-yl]methyl}benzamide] | 40 | 461 | – | –
14 | Cc1cnc(-c2cc(OC3COC3)cc(C(=O)NCc3cnc(C(F)(F)F)nc3)c2)s1 [Example 167, 3-(5-methyl-1,3-thiazol-2-yl)-5-(oxetan-3-yloxy)-N-{[2-(trifluoromethyl)pyrimidin-5-yl]methyl}benzamide] | 72 | 893 | – | –
15 | Cc1cnc(-c2cc(O[C@H]3CN4CCC3CC4)cc(C(=O)N[C@H](C)c3cnc(C(F)(F)F)nc3)c2)s1 [Example 168, 3-[(3R)-1-azabicyclo[2.2.2]oct-3-yloxy]-5-(5-methyl-1,3-thiazol-2-yl)-N-{(1R)-1-[2-(trifluoromethyl)pyrimidin-5-yl]ethyl}benzamide] | – | – | 19 | 1600
16 | CCc1cnc(-c2cc(OC3COC3)cc(C(=O)N[C@H](C)c3cnc(C(F)(F)F)nc3)c2)s1 [Example 169, 3-(5-ethyl-1,3-thiazol-2-yl)-5-(oxetan-3-yloxy)-N-{(1R)-1-[2-(trifluoromethyl)pyrimidin-5-yl]ethyl}benzamide] | 9 | 70 | – | –
17 | Cc1ccc(Oc2cc(C(=O)N[C@H](C)c3cnc(C(F)(F)F)nc3)cc(-c3ncc(C)s3)c2)nn1 [Example 170, 3-[(6-methylpyridazin-3-yl)oxy]-5-(5-methyl-1,3-thiazol-2-yl)-N-{(1R)-1-[2-(trifluoromethyl)pyrimidin-5-yl]ethyl}benzamide] | 165 | 2020 | – | –
18 | Cc1cnc(-c2cc(O[C@@H]3CCOC3)cc(C(=O)N[C@H](C)c3ccc(C(F)F)nc3)c2)s1 [Example 171, N-{(1R)-1-[6-(difluoromethyl)pyridin-3-yl]ethyl}-3-(5-methyl-1,3-thiazol-2-yl)-5-[(3R)-tetrahydrofuran-3-yloxy]benzamide] | 26 | 573 | – | –
19 | Cc1cnc(-c2cc(O[C@H]3CN4CCC3CC4)cc(C(=O)N[C@H](C)c3ccc(C(F)(F)F)nc3)c2)s1 [Example 172, 3-[(3R)-1-azabicyclo[2.2.2]oct-3-yloxy]-5-(5-methyl-1,3-thiazol-2-yl)-N-{(1R)-1-[6-(trifluoromethyl)pyridin-3-yl]ethyl}benzamide] | – | – | 31 | 2110
20 | CCc1cnc(-c2cc(O[C@@H]3CN4CCC3CC4)cc(C(=O)N[C@H](C)c3cnc(C(F)(F)F)nc3)c2)s1 [Example 173, 3-[(3S)-1-azabicyclo[2.2.2]oct-3-yloxy]-5-(5-ethyl-1,3-thiazol-2-yl)-N-{(1R)-1-[2-(trifluoromethyl)pyrimidin-5-yl]ethyl}benzamide] | – | – | 5 | 311
21 | CCc1cnc(-c2cc(O[C@H]3CN4CCC3CC4)cc(C(=O)N[C@H](C)c3cnc(C(F)(F)F)nc3)c2)s1 [Example 174, 3-[(3R)-1-azabicyclo[2.2.2]oct-3-yloxy]-5-(5-ethyl-1,3-thiazol-2-yl)-N-{(1R)-1-[2-(trifluoromethyl)pyrimidin-5-yl]ethyl}benzamide] | – | – | 11 | 790
22 | Cc1cnc(-c2cc(O[C@@H]3CN4CCC3CC4)cc(C(=O)N[C@H](C)c3ccc(C(F)(F)F)nc3)c2)s1 [Example 175, 3-[(3S)-1-azabicyclo[2.2.2]oct-3-yloxy]-5-(5-methyl-1,3-thiazol-2-yl)-N-{(1R)-1-[6-(trifluoromethyl)pyridin-3-yl]ethyl}benzamide] | – | – | 23 | 1270
23 | Cc1cnc(-c2cc(Oc3nnc(C)s3)cc(C(=O)N[C@H](C)c3ccc(C(F)(F)F)nc3)c2)s1 [Example 176, 3-[(5-methyl-1,3,4-thiadiazol-2-yl)oxy]-5-(5-methyl-1,3-thiazol-2-yl)-N-{(1R)-1-[6-(trifluoromethyl)pyridin-3-yl]ethyl}benzamide] | 29 | 607 | – | –
24 | Cc1cnc(-c2cc(OC[C@H]3COCCO3)cc(C(=O)N[C@H](C)c3cnc(C(F)(F)F)nc3)c2)s1 [Example 178, 3-[(2R)-1,4-dioxan-2-ylmethoxy]-5-(5-methyl-1,3-thiazol-2-yl)-N-{(1R)-1-[2-(trifluoromethyl)pyrimidin-5-yl]ethyl}benzamide] | 39 | 1880 | – | –
25 | Cc1cnc(-c2cc(OC[C@H]3COCCO3)cc(C(=O)N[C@H](C)c3ccc(C(F)(F)F)nn3)c2)s1 [Example 179, 3-[(2R)-1,4-dioxan-2-ylmethoxy]-5-(5-methyl-1,3-thiazol-2-yl)-N-{(1R)-1-[6-(trifluoromethyl)pyridazin-3-yl]ethyl} benzamide] | 13 | 703 | – | –
26 | Cc1cnc(-c2cc(OC[C@@H]3COCCO3)cc(C(=O)N[C@H](C)c3ccc(C(F)(F)F)nc3)c2)s1 [Example 180, 3-[(2S)-1,4-dioxan-2-ylmethoxy]-5-(5-methyl-1,3-thiazol-2-yl)-N-{(1R)-1-[6-(trifluoromethyl)pyridin-3-yl]ethyl}benzamide] | 31 | 1400 | – | –
27 | Cc1cnc(-c2cc(OC[C@@H]3COCCO3)cc(C(=O)N[C@H](C)c3cnc(C(F)(F)F)nc3)c2)s1 [Example 181, 3-[(2S)-1,4-dioxan-2-ylmethoxy]-5-(5-methyl-1,3-thiazol-2-yl)-N-{(1R)-1-[2-(trifluoromethyl)pyrimidin-5-yl]ethyl}benzamide] | 19 | 1180 | – | –
28 | Cc1cnc(-c2cc(OC[C@@H]3COCCO3)cc(C(=O)N[C@H](C)c3ccc(C(F)(F)F)nn3)c2)s1 [Example 182, 3-[(2S)-1,4-dioxan-2-ylmethoxy]-5-(5-methyl-1,3-thiazol-2-yl)-N-{(1R)-1-[6-(trifluoromethyl)pyridazin-3-yl]ethyl}benzamide] | 63 | 1940 | – | –

Reference: US10174016B2 (BAYER AKTIENGESELLSCHAFT, priority 2014, dated 2019)
